In US7829591B2, “Flavanone compound and uses thereof” (Pokka Corporation, priority 2003, dated 2010):

How the values were obtained:
[1] = DPPH radical scavenging activity test; format: biochemical; conditions: for Radical Scavenging Activity (%) from DPPH Radical Scavenging Activity Test: 25 μM sample solution in ethanol, 1 h in dark, absorbance 517 nm, average ± SD of three runs
Method: DPPH (α,α-diphenyl-β-picrylhydradil) is a purple stable radical having a maximum absorption at 517 nm, which is converted into colorless hydrazine by gaining hydrogen. This color reaction was utilized so as to determine the radical scavenging activity of each of Compounds 1 to 4 and the like. That is, each of Compounds 1 to 4 was dissolved in ethanol to prepare 3 ml of a sample solution having a concentration of 25 μM. Thereafter, to each of the resultant sample solutions, 0.75 ml of a 0.5 mM DPPH solution (whose solvent was ethanol) was added and stirred, and reacted in a dark place for one hour, followed by the determination of an absorbance at 517 nm. Furthermore, in place of Compounds 1 to 4, BHT (butylated hydroxytoluene), α-tocopherol or eriodictyol was used so as to determine an absorbance according to a similar procedure to the above. Besides, instead of the above sample solutions, ethanol was used as a control so as to determine an absorbance according to a similar procedure to the above. Then the radical scavenging activity (%) of each of the materials was calculated using the following calculation formula 1. Incidentally, each of values shown in Table 1 is the average value and standard deviation of values obtained from three runs. (Radical Scavenging Activity)=[{(Absorbance of Control)−(Absorbance of Sample Solution)}/(Absorbance of Control)]×100 Calculation Formula 1

[2] = β-carotene fading test; format: biochemical; conditions: for Antioxidant Activity (%) from β-carotene Fading Test: 20 μM in reaction liquid, 60° C. for 60 minutes, absorbance 470 nm, average ± SD of three runs; for antioxidant activity (in words): comparison from Table 1
Method: β-carotene will fade due to the reaction of linoleic acid peroxide, which is produced by the autoxidation of linoleic acid, with a double bond in β-carotene. This phenomenon was utilized so as to determine the antioxidant activity of each of Compounds 1 to 4 and the like. That is, first of all, 2 ml of a 200 mg/ml solution of Tween-40 in chloroform, 0.4 ml of a 100 mg/ml solution of linoleic acid in chloroform, and 3 ml of a 0.1 mg/ml solution of β-carotene in chloroform were mixed, and thereafter the solvent was removed by using a nitrogen gas. Subsequently, 100 ml of distilled water was added thereto, and adequately stirred to obtain an emulsion. To 3 ml of this emulsion, ethanol was added to completely dissolve the solute in the solvent. Thereafter, each of Compounds 1 to 4 was dissolved in ethanol so as to prepare a sample solution having a concentration of 1.2 mM. 50 μl of the sample solution was mixed with the above emulsion wherein the solute had been completely dissolved so as to prepare a reaction liquid (or a sample reaction liquid). Then the concentration of each of Compounds 1 to 4 in the reaction liquid was 20 μM. The reaction liquid was incubated at 60° C. for 60 minutes. Then the absorbance of each of the reaction liquid before the incubation and the reaction liquid after the incubation was determined at 470 nm. Furthermore, BHT, α-tocopherol, or eriodictyol was used in place of Compounds 1 to 4 so as to determine the absorbance of the reaction liquid before and after incubation according to a similar procedure to the above-mentioned one. In addition, as a control, a reaction liquid (or a control reaction liquid) wherein no sample solution was contained was prepared so as to determine the absorbance of the reaction liquid before and after incubation according to a similar procedure to the above-mentioned one. The antioxidant activity (%) of each of the materials was calculated using the following calculation formula 2. Incidentally, each of values shown in Table 1 is the average value and standard deviation of values obtained from three runs. (Antioxidant Activity)=[{(Fading Rate of Control)−(Fading Rate of Sample Solution)}/(Fading Rate of Control)]×100 Calculation Formula 2
It should be noted that in the calculation formula 2, “Fading Rate of Control” is the natural logarithm of a value which is acquired by dividing the absorbance of the control reaction liquid before incubation by the absorbance of the control reaction liquid after incubation and further by dividing the resultant value by 60; and “Fading Rate of Sample Solution” is the natural logarithm of a value which is acquired by dividing the absorbance of the sample reaction liquid before incubation by the absorbance of the sample reaction liquid after incubation and further by dividing the resultant value by 60.

[3] = tested on: breast cancer cells (MCF-7); experiment: Breast cancer cell proliferation-inhibition test; format: cell-based; conditions: for Relative Value of Living Cells: 0.1 nM estradiol, Control 1 at 0 day = 1; for inhibiting effect on the proliferation of breast cancer cells (in words): 20 μM, compared with Control 1
Method: When breast cancer cells (MCF-7) are cultured, if estradiol (or 17β-estradiol) having a cell-proliferation accelerating action, is added thereto, the proliferation of breast cancer cells can be simply promoted in a short period. This phenomenon was utilized so as to examine the effect of each of Compounds 1 to 4 and the like on the proliferation inhibition of breast cancer cells. That is, first of all, each of Compounds 1 to 4 was diluted with dimethyl sulfoxide to prepare a sample solution. Thereafter, 2×10^3 of MCF-7 were inoculated in each well of a 96-well plate, and estradiol and the sample solution were added thereto after 4 hours. Estradiol was added to each compartment so that the final concentration of estradiol can be 0.1 nM, and the final concentration of the sample solution can be 0.2 μM, 2 μM, or 20 μM. After incubation for a predetermined period of time (three or five days), each of the media was replaced with a new medium, and an enzyme solution (Cell counting Kit-8: Wako) was added to the new medium in an amount of 10% of the new medium. After maintained the medium in an incubator at a temperature of 37° C. for two hours, the absorbance of the medium was determined at a wavelength of 450 nm (a reference wave length of 630 nm) by means of a spectrophotometer so as to quantify the number of living cells in each compartment.
As for the compartment whose incubation period is predetermined to be five days, on the third day of the incubation, the medium was replaced with a new medium, and thereafter, estradiol and a sample solution were added to the new medium, and the incubation was continued till fifth day. As for the compartment whose incubation period is predetermined to be 0 day, at four hours after the cells were inoculated, an enzyme solution was added to the medium. The medium was maintained in an incubator at a temperature of 37° C. for two hours, followed by determining the absorbance.
Instead of Compounds 1 to 4, eriodictyol was used to determine the absorbance according to a similar procedure to the above-mentioned one, and thus the number of living cells in each compartment was quantified. Furthermore, Control 1 to which neither estradiol nor a sample had been added was used to determine the absorbance according to a similar procedure to the above-mentioned one, and thus the number of living cells in each compartment was quantified, while Control 2 to which no sample had been added was used to determine the absorbance according to a similar procedure to the above-mentioned one, and thus the number of living cells in each compartment was quantified.
When it is assumed that the number of living cells of Control 1 as quantified after a zero-day incubation period is 1, the relative value of living cells as quantified in each of the runs mentioned above is shown in Table 2. Incidentally, each of values shown in Table 2 is the average value and standard deviation of values obtained from eight wells.

[4] = 0.2 μM sample, after 3-days incubation
[5] = 0.2 μM sample, after 5-days incubation
[6] = 0.2 μM sample, on 0-day incubation, mean ± SD of eight wells
[7] = 2 μM sample, after 3-days incubation
[8] = 2 μM sample, after 5-days incubation
[9] = 2 μM sample, on 0-day incubation
[10] = 20 μM sample, after 3-days incubation
[11] = 20 μM sample, after 5-days incubation
[12] = 20 μM sample, on 0-day incubation

Structure (SMILES)	Radical Scavenging Activity (%) from DPPH Radical Scavenging Activity Test [1] [%]	Antioxidant Activity (%) from β-carotene Fading Test [2] [%]	antioxidant activity (in words) [2]	Relative Value of Living Cells [3, 4]	Relative Value of Living Cells [3, 5]	Relative Value of Living Cells [3, 6]	Relative Value of Living Cells [3, 7]	Relative Value of Living Cells [3, 8]	Relative Value of Living Cells [3, 9]	Relative Value of Living Cells [3, 10]	Relative Value of Living Cells [3, 11]	Relative Value of Living Cells [3, 12]	inhibiting effect on the proliferation of breast cancer cells (in words) [3]	radical scavenging activity (in words) ([1]; comparison from Table 1)
CC(C)=CCC/C(C)=C/Cc1c([C@@H]2CC(=O)c3c(O)cc(O)cc3O2)ccc(O)c1O [Compound 1, 5,7,3′,4′-tetrahydroxy-2′-C-geranylflavanone]	55.35 ± 0.43	85.54 ± 2.24	about the same high antioxidant activity as that of each of BHT, α-tocopherol, and eriodictyol	2.86 ± 0.14	7.26 ± 0.48	0.98 ± 0.04	2.58 ± 0.11	6.01 ± 0.25	0.99 ± 0.05	2.22 ± 0.19	4.17 ± 0.50	1.01 ± 0.05		
CC(C)=CCC/C(C)=C/Cc1c([C@@H]2CC(=O)c3c(cc(O)c(CC=C(C)C)c3O)O2)ccc(O)c1O [Compound 4, 5,7,3′,4′-tetrahydroxy-6-(3′″,3′″-dimethylallyl)-2′-C-geranylflavanone]	50.79 ± 0.08	80.06 ± 0.29	about the same high antioxidant activity as that of each of BHT, α-tocopherol, and eriodictyol	2.97 ± 0.27	6.30 ± 0.54	0.99 ± 0.04	3.03 ± 0.30	6.41 ± 0.53	1.00 ± 0.07	1.27 ± 0.20	1.01 ± 0.12	0.98 ± 0.04	cytotoxic effect upon breast cancer cells	
CC(C)=CCC/C(C)=C/Cc1c(O)cc2c(c1O)C(=O)C[C@@H](c1ccc(O)c(O)c1)O2 [Compound 3, 5,7,3′,4′-tetrahydroxy-6-C-geranylflavanone]	64.00 ± 0.58	60.62 ± 1.16		2.94 ± 0.20	6.99 ± 0.66	0.99 ± 0.05	2.53 ± 0.30	5.38 ± 0.44	1.01 ± 0.05	1.21 ± 0.22	0.89 ± 0.12	0.96 ± 0.04	cytotoxic effect upon breast cancer cells	highest radical scavenging activity
CC(C)=CCC/C(C)=C/Cc1cc([C@@H]2CC(=O)c3c(O)cc(O)cc3O2)cc(O)c1O [Compound 2, 5,7,3′,4′-tetrahydroxy-5′-C-geranylflavanone]	49.86 ± 0.96	78.07 ± 1.79	about the same high antioxidant activity as that of each of BHT, α-tocopherol, and eriodictyol	2.97 ± 0.37	6.83 ± 0.58	0.95 ± 0.04	2.68 ± 0.19	6.59 ± 0.50	0.99 ± 0.04	2.59 ± 0.21	5.59 ± 1.01	1.00 ± 0.07		
